According to paper PMC8284473, “Preliminary Characterization of NP339, a Novel Polyarginine Peptide with Broad Antifungal Activity” (Antimicrobial Agents and Chemotherapy, 2021):

Legend:
human whole blood = human whole blood exposed to the peptide; data not shown
[1] = Tolerability in mouse models of infection; type: in vivo; conditions: at the therapeutic doses and duration of therapy used
Experimental: In all experiments, the animals were housed 4 or 5/cage in sterilized individual ventilated cages exposing the mice at all times to HEPA-filtered sterile air. Food and water were available ad libitum, and sterile aspen chip bedding was changed at least once weekly. The room temperature was 22 ± 1°C, with a relative humidity of 60% and maximum background noise of 56 dB. Mice were exposed to 12-h light/dark cycles. Before the experiments, the animals were randomly divided into groups. After the experiments, the animals were sacrificed by humane euthanasia by delivering 0.5 ml of 200 mg/ml pentobarbital solution via intraperitoneal injection. For quantification of fungal burden, samples were diluted appropriately and then quantitatively cultured on to SAB containing 0.05 mg/ml chloramphenicol and incubated at 37°C for 24 to 48 h before enumeration.
Male CD1 mice (n = 24 mice, 6 to 8 weeks of age, average weight of 23.5 g) were obtained from Charles River, Margate, United Kingdom. […] The mice were culled 29 h postinfection, and fungal kidney burdens were determined by plating as previously described.
Female BALB/c mice (n = 24 mice, 6 to 8 weeks of age, weight of 16 to 18 g) were obtained from Charles River, Margate, United Kingdom. […] At 3 days postinfection, fungal burdens in vaginal lavage samples were determined as described above. […]

[2] = system: A549 epithelial lung cell line; test: NP339 cytotoxicity, LIVE/DEAD staining; type: cell-based, human; conditions: A549 monolayer, 3 h, 37°C, RPMI 1640; concentrations hundreds of folds above antifungal; n = 2
Experimental: Lung epithelial cells (A549 cells; ATCC [distributed by LGC Promochem, Teddington, United Kingdom]) were cultured in a 96-well plate in Ham’s F-12K medium (Fisher Scientific UK, Ltd.) supplemented with 10% (vol/vol) fetal bovine serum. The cells were incubated under 5% CO2 at 37°C until 90% confluent. NP339 solutions and 0.25% SDS (the kill control) were prepared in prewarmed RPMI 1640 medium. Once the cells reached 90% confluence, the culture medium was removed from the 96-well plate, taking care not to disturb the cells, and 100 μl of NP339 solution was added to the cell monolayer. The plates were incubated at 37°C under 5% CO2 for 3 h. Toxicity was determined using the Molecular Probes LIVE/DEAD Viability/Cytotoxicity kit, as per the manufacturer’s instructions. As the kill control, 0.25% (wt/vol) SDS was used. Untreated cells were the live control (cells incubated with the medium).

human PBMCs = test: NP339 cytotoxicity, LIVE/DEAD staining; type: cell-based; conditions: human PBMCs 5 × 10^5 cells/well, 2 h, 37°C, RPMI 1640; concentrations hundreds of folds above antifungal; n = 2
Experimental: PBMCs were isolated from fresh human whole blood using Leucosep tubes (Greiner Bio-One), according to the manufacturer’s instructions. The cells were suspended in RPMI 1640 medium (5 × 10^6 cells/ml) and transferred to 96-well plate (5 × 10^5 cells/well). NP339 solutions were prepared in prewarmed RPMI 1640 medium and added to the cell suspension. The plates were incubated at 37°C under 5% CO2 for 2 h. Toxicity was determined using the Molecular Probes LIVE/DEAD Viability/Cytotoxicity kit (Fisher Scientific UK, Ltd.). As the kill control, 0.1% (vol/vol) Triton X-100 was used. Untreated cells were the live control.

SMILES: N=C(N)NCCC[C@H](NC(=O)[C@H](CCCNC(=N)N)NC(=O)[C@H](CCCNC(=N)N)NC(=O)[C@H](CCCNC(=N)N)NC(=O)[C@H](CCCNC(=N)N)NC(=O)[C@H](CCCNC(=N)N)NC(=O)[C@H](CCCNC(=N)N)NC(=O)[C@H](CCCNC(=N)N)NC(=O)[C@H](CCCNC(=N)N)NC(=O)[C@H](CCCNC(=N)N)NC(=O)[C@H](CCCNC(=N)N)NC(=O)[C@H](CCCNC(=N)N)NC(=O)[C@@H](N)CCCNC(=N)N)C(=O)O [NP339]
- Nonspecific immune response (cytokine measurements) (human whole blood): did not elicit a nonspecific immune response
- Tolerability [1]: well tolerated
- Cytotoxicity (live/dead cell ratio) [2]: not toxic
- Cytotoxicity (live/dead cell ratio) (human PBMCs): not toxic
